Assay results taken from patent US20220273689A1, “POTENTIATION OF ANTIVIRAL NUCLEOBASES AS RNA VIRUS THERAPY” (REGENTS OF THE UNIVERSITY OF MINNESOTA, priority 2019, published 2022).
Entries after “also recorded” stand apart in the source; their conditions may differ. Read-outs that look alike come from different tables or passages of the source.

Tests used:
[1] = test system: DENV-2 viral replicon; conditions: for TTI, tissue culture therapeutic index (CC50/EC50): DENV replicon BHK cells
[2] = test system: DENV replicon; format: cell-based, Dengue virus (DENV); conditions: for antiviral activity of nucleobase alone: 0.6 μM nucleobase, without 6-MMPR; for antiviral (anti-replicon) activity when supplemented with 6-MMPR: nucleobase supplemented with 0.01 μM 6-MMPR
[3] = test system: DENV replicon cells (BHK); experiment: Cell viability assay (MTS) in DENV replicon cells; conditions: for CC50: DENV replicon BHK cells, MTS, 72 h
[4] = test system: DENV-2 viral replicon; experiment: microbe, parasite or virus in culture; conditions: Dengue virus, DENV2, BHK, 72 h
[5] = Cell viability assay (MTS) in DENV replicon cells; conditions: hamster
[6] = test system: DENV 2; experiment: Potentiation in replication-competent DENV assay using Huh-7 cells (plaque assay, MacSynergy II); conditions: for synergy/potentiation with 6-MMPR for reduction in DENV replication: Huh7 cells, 0.1 μM 6-MMPR, infectious virus titer (FIG. 9); for potentiation/synergy with 6-MMPR of anti-DENV activity: Huh-7 cells, matrix of 6-MMPR and T-1105, infectious virus titer (FIG. 6)
Method: Huh7 cells were plated in each well of a 24 well plate (1×10^5/well). Twenty-four hours later, cells were inoculated with DENV 2 or ZIKV at a multiplicity of infection (MOI) of 0.05. Two hours post-inoculation, inoculum was retired and fresh medium containing treatment was added. Columns 1 to 6 were treated with increasing concentrations of 6-MMPR (0, 0.025, 0.05, 0.1, 0.2 and 0.4 μM). Rows A to D were treated with 0, 25, 50 and 100 μM of T-1105. Supernatants were collected after 72 hours post-infection and infectious virions were analyzed by plaque assay as extent of infectious virus production. For FIG. 5, Huh7 cells were inoculated with DENV or ZIKV and treated with different concentrations of T-1105 (0, 3, 9, 27, 51 or 243 μM), T-1106 (0, 6.7, 20, 60, 180 or 540 μM) and T-705 (same concentrations as T-1106) in combination with 0.1 μM AM28 or DMSO. After 72 hours post infection supernatants were collected and analyzed for viral yield by plaque assay.

[7] = test system: IAV; experiment: Protection of Huh7 cells from IAV-induced cytopathic effects (MTS); format: cell-based, influenza A virus
[8] = test system: HCoV-OC43; experiment: Potentiation against HCoV-OC43 in Huh7 cells; format: cell-based, human betacoronavirus OC43; conditions: HCoV-OC43, combination with 6-MMPR, MacSynergy; listed as favipiravir
Method: HCoV-OC43. Huh7 cells were 12,500 Huh7 cells were seeded in a 96 well plate. Next day, the cells were inoculated with OC43 virus at a MOI (multiplicity of infection) of 0.5 for two hours. Next, the inoculum was removed and cells were treated with different combinations of 6MMPr and T-705 or remdesivir 1 μM (RDV) as positive control. Three wells per treatment were used. Cells were incubated for 5 days. Infected and treated cells were analyzed for cell viability by MTS and absorbance was measured at 490 nm.

[9] = Safety of the combination in DENV mouse model; format: in vivo; conditions: health of the mice / body weight
Method: The mice were treated with Vehicle, the combination T-1105 (3a)+6-MMPR, 1105 only, and PBS. Viral genomes were detected and quantitated by RT-qPCR at 2 or 4 days post infection. […] These studies help predict a safe dose and timing of administration of the combination of favipiravir (T705) and 6-MMPR to treat RNA virus infections, such as SARS-CoV-2.

[10] = test system: ZIKV; experiment: Potentiation in replication-competent ZIKV titer reduction assay using Huh-7 cells; conditions: 0.1 μM 6-MMPR, infectious virus titer
Method: DENV and ZIKV. Huh7 cells were plated in each well of a 24 well plate (1×10^5/well). Twenty-four hours later, cells were inoculated with DENV 2 or ZIKV at a multiplicity of infection (MOI) of 0.05. Two hours post-inoculation, inoculum was retired and fresh medium containing treatment was added. Columns 1 to 6 were treated with increasing concentrations of 6-MMPR (0, 0.025, 0.05, 0.1, 0.2 and 0.4 μM). Rows A to D were treated with 0, 25, 50 and 100 μM of T-1105. Supernatants were collected after 72 hours post-infection and infectious virions were analyzed by plaque assay as extent of infectious virus production.

[11] = test system: DENV; experiment: DENV titer reduction assay in Huh-7 cells, dose-response; format: cell-based; conditions: Dengue virus
[12] = test system: Huh-7 cells
Method: The hepatocyte-derived cellular carcinoma cell line Huh-7 was used for DENV infection and drug treatment (H. Nakabayashi, et al (1982) Cancer Res 42:3858-3863). […] All cell lines were maintained in Dulbecco's modified Eagle's (DME) medium supplemented with 10% fetal bovine serum (FBS), 100 IU streptomycin/penicillin per ml and 10 μg/mL plasmocin (InvivoGen) at 37° C. in a 5% CO2 incubator. DENV replicon cells were supplemented with 3 μg/mL puromycin (Life Technologies).
The sensitivity of the cell lines to the compounds was examined using the 3-(4,5-dimethylthiazol-2-yl)-5-(3-carboxymethoxyphenyl)-2-(4-sulfophenyl)-2H-tetrazolium (MTS)-based tetrazolium reduction CellTiter 96 Aqueous Non-Radioactive cell proliferation assay (Promega G5430). The compounds were initially tested at 10 and 50 μM final concentrations. […] The plates were read at various time points at a wavelength of 490 nm using a Molecular Devices M5e plate reader. Mean values of triplicate wells were determined and compared to the mean value for the wells that received DMSO alone. For compounds selected for dose-response experiments, the CC50 was determined by comparing cell viability for eight serial dilutions of the compound and DMSO treated cells using GraphPad Prism software.

[13] = combination with 6-MMPR (AM28), MacSynergy II

NC(=O)c1nc[nH]c1O [Compound 2a, 5-hydroxy-1H-imidazole-4-carboxamide]
TTI, tissue culture therapeutic index (CC50/EC50) [1]: 9.6 | antiviral activity of nucleobase alone [2]: no antiviral activity | antiviral (anti-replicon) activity when supplemented with 6-MMPR [2]: an increase in antiviral activity was observed | CC50 [3]: 23 ± 4.2 µM | EC50 [4]: 2.4 ± 0.1 µM

NC(=O)c1nc[nH]n1 [Compound 1a, 1H-1,2,4-triazole-3-carboxamide]
TTI, tissue culture therapeutic index (CC50/EC50) [1]: 204 | antiviral activity of nucleobase alone [2]: no antiviral activity | antiviral (anti-replicon) activity when supplemented with 6-MMPR [2]: an increase in antiviral activity was observed | CC50 at 72 h [5]: > 665 µM | CC50 [3]: > 1000 µM | cytotoxicity ([3]; at 1000 μM): did not show cytotoxicity | EC50 [4]: 4.9 ± 1.6 µM

NC(=O)c1nc(F)cnc1O [Compound 5a, 6-fluoro-3-hydroxypyrazine-2-carboxamide, reference compound]
synergy/potentiation with 6-MMPR for reduction in DENV replication ([6]; listed as T-705): synergistic effect | synergy/potentiation with 6-MMPR for reduction in DENV replication ([6]; listed as favipiravir): synergistic antiviral effect | synergy with 6-MMPR for reduction in DENV replicon replication [2]: synergistic effect | CC50 at 72 h [5]: > 665 µM | CC50 [3]: > 1000 µM | synergy with 6-MMPR against IAV [7]: synergistic antiviral effect; also recorded: clear synergy peak | protection of cells from IAV-induced cytopathic effects (CPE) ([7]; Huh7 cells, in combination with 6MMPR, listed as favipiravir): can protect cells; also recorded: protection of human cells from IAV-induced cell death | EC50 [4]: 110 ± 30 µM | synergy with 6-MMPR in inhibiting production of infectious coronavirus particles [8]: synergistic antiviral effect; also recorded: synergistically increases; also recorded: clear synergistic effect | safety of the combination with 6-MMPR [9]: safe | synergy/potentiation with 6-MMPR for reduction in ZIKV replication [10]: showed synergy | synergy/potentiation with 6-MMPR for reduction in ZIKV replication ([10]; listed as T-705): synergistic effect | synergy/potentiation with 6-MMPR for reduction in ZIKV replication ([10]; listed as favipiravir): synergistic antiviral effect

COc1c(C)c2c(c(O)c1C/C=C(C)/C=C(\C)C(=O)O)C(=O)OC2 [Compound 6, (2E,4E)-6-(4-hydroxy-6-methoxy-7-methyl-3-oxo-1,3-dihydroisobenzofuran-5-yl)-2,4-dimethylhexa-2,4-dienoic acid, reference compound]
TTI, tissue culture therapeutic index (CC50/EC50) [1]: 4.7 | CC50 [3]: 1.4 ± 0.4 µM | EC50 [4]: 0.3 ± 0.03 µM

CSc1ncnc2c1ncn2[C@@H]1O[C@H](CO)[C@@H](O)[C@H]1O [Compound 6-MMPR, (2R,3S,4R,5R)-2-(hydroxymethyl)-5-(6-(methylthio)-9H-purin-9-yl)tetrahydrofuran-3,4-diol]
antiviral activity of 6-MMPR alone ([2]; 0.01 μM, alone): lack of antiviral activity | potentiation of nucleobase anti-replicon activity ([2]; 6-MMPR 0.0025 and 0.005 μM): did not potentiate nucleobase anti-replicon activity | anti-replicon activity of their own ([2]; 6-MMPR 0.0025 and 0.005 μM, alone): nor did they have anti-replicon activity of their own

NC(=O)c1ncn([C@@H]2O[C@H](CO)[C@@H](O)[C@H]2O)n1 [Compound 1b, 1-((2R,3R,4S,5R)-3,4-dihydroxy-5-(hydroxymethyl)tetrahydrofuran-2-yl)-1H-1,2,4-triazole-3-carboxamide, reference compound]
EC50 [4]: 1.3 ± 0.1 µM

NC(=O)c1ncn([C@@H]2O[C@H](CO)[C@@H](O)[C@H]2O)c1O [Compound 2b, 1-((2R,3R,4S,5R)-3,4-dihydroxy-5-(hydroxymethyl)tetrahydrofuran-2-yl)-5-hydroxy-1H-imidazole-4-carboxamide, reference compound]
TTI, tissue culture therapeutic index (CC50/EC50) [1]: 2.2 | CC50 [3]: 33 ± 12 µM | EC50 [4]: 15 ± 7.8 µM

NC(=O)c1nccnc1O [Compound 3a, 3-hydroxypyrazine-2-carboxamide]
times more active than nucleobase 5a (favipiravir) ([1]; DENV replicon): 5 | TTI, tissue culture therapeutic index (CC50/EC50) [1]: 32 | synergy/potentiation with 6-MMPR for reduction in DENV replication [6]: synergistic effect | potentiation/synergy with 6-MMPR of anti-DENV activity [6]: strongly potentiates | potentiation/synergy with 6-MMPR of anti-DENV activity ([6]; listed as T-1105): synergistic effect | synergy with 6-MMPR for reduction in DENV replicon replication [2, 13]: Stronger synergy | synergy with 6-MMPR for reduction in DENV replicon replication ([2]; combination with 6-MMPR (AM28), MacSynergy II, listed as T-1105): synergistic effect | CC50 at 72 h [5]: > 665 µM | CC50 [3]: > 665 µM | EC50 [11]: 20 ± 11 µM | EC50 [4]: 21 ± 0.7 µM | synergy/potentiation with 6-MMPR for reduction in ZIKV replication [10]: showed synergy | synergy/potentiation with 6-MMPR for reduction in ZIKV replication ([10]; listed as T-1105): synergistic effect | cellular toxicity [12]: absence of cellular toxicity

Nc1nc(N)c2[nH]cnc2n1 [Compound 4a, 9H-purine-2,6-diamine]
CC50 [3]: 13 ± 2.1 µM

NC(=O)c1nccn([C@@H]2O[C@H](CO)[C@@H](O)[C@H]2O)c1=O [Compound 3b, 4-((2R,3R,4S,5R)-3,4-dihydroxy-5-(hydroxymethyl)tetrahydrofurran-2-yl)-3-oxo-3,4-dihydropyrazine-2-carboxamide]
TTI, tissue culture therapeutic index (CC50/EC50) [1]: 8.8 | synergy/potentiation with 6-MMPR for reduction in DENV replication [6]: almost entirely an additive result | synergy/potentiation with 6-MMPR for reduction in DENV replication ([6]; listed as T-1106): does not produce a synergistic effect | synergy with 6-MMPR for reduction in DENV replicon replication [2, 13]: did not result in significant synergy | synergy with 6-MMPR for reduction in DENV replicon replication ([2]; combination with 6-MMPR (AM28), MacSynergy II, listed as T-1106): synergistic effect | CC50 [3]: > 1000 µM | EC50 [11]: 60 ± 22 µM | EC50 [4]: 113 ± 11 µM | synergy/potentiation with 6-MMPR for reduction in ZIKV replication [10]: did not potentiate | synergy/potentiation with 6-MMPR for reduction in ZIKV replication ([10]; listed as T-1106): does not produce a synergistic effect
